Data taken from patent publication US20250221930A1, “A COMPOSITION COMPRISING LIPID NANOPARTICLES AND AN ANTIFUNGAL POLYENE” (INSTITUT NATIONAL DE LA SANTÉ ET DE LA RECHERCHE MÉDICALE, priority 2022, published 2025).
In brackets after ≈: the same amount, converted by molar mass.

What was measured:
Type in all cases: cell-based
Lichtheimia corymbifera [1] = test: Checkerboard AmB MIC with surfactant in solution, inhibitory Emax model
Procedure: (§1) Twelve clinical isolates of Mucorales identified by ARNr sequencing were used: Rhizopus arrhizus (5), Rhizopus microsporus (1), Lichtheimia corymbifera (3), Lichtheimia ramosa (1), Mucor circinelloides (1), Rhizomucor pusillus (1). Isolates were subcultured from frozen stocks (−80° C.) on 75 cm^3 flasks containing 15 mL of Sabouraud dextrose agar (Sigma-Aldrich, St. Quentin Fallavier, France) during 3 days at 37° C. Spores were collected by flooding the flask with 10 ml of sterile water. The suspensions were filtered on nylon filter (Millipore, Carrigtwohill, Ireland) with pore size of 11 μm to remove hyphal elements. The concentration of the spore suspensions was then adjusted in sterile water to obtain inocula of 2×10^5 spores/mL.
(§2) AmB powder (Sigma-Aldrich) was dissolved in dimethyl sulfoxide to get a stock solution at 8192 mg/L stored at −80° C. for six months. On the day of use, AmB and freshly made surfactant solutions (in RPMI or PBS) were diluted in the same medium (RPMI or PBS) to obtain desired concentrations. Surfactants used (polyethylene glycol (15)-hydroxystearate (also named Solutol® HS15 or Kolliphor® HS 15, or Macrogol 15 Hydroxystearate); polyoxyethylene (10) stearyl ether (Brij® S10); polyoxyethylene (20) stearyl ether (Brij® S20); polyoxyethylene (20) oleyl ether (Brij® 020); and polyoxyethylene (10) cetyl ether (Brij® C10)), which have their chemical structure presented in FIG. 7, were purchased from Sigma-Aldrich.
(§3) AmB minimum inhibitory concentrations (MIC) of each strain of Mucorales was measured in RPMI the presence of different concentrations of surfactant as described by the EUCAST broth microdilution antifungal susceptibility test methodology with modification for the checkerboard procedure. Checkerboards were performed by adding 100 μL of two-fold dilutions of AmB (0.008 to 4 mg/L) and surfactant solutions (0.04 to 2752 mg/L) in 96 well plates. One hundred microliters of a spore suspension at a concentration of 105 spores/mL were added to the wells, and the plates were incubated for 24 h at 37° C. […] Three experiments were performed for each strain.
(§4) An inhibitory Emax model (Equation 1) developed by Chauzy et al. (Chauzy, A.; Buyck, J.; de Jonge, B. L. M.; Marchand, S.; Grégoire, N.; Couet, W. Pharmacodynamic Modelling of β-Lactam/β-Lactamase Inhibitor Checkerboard Data: Illustration with Aztreonam-Avibactam. Clin. Microbiol. Infect. 2019, 25, 515.e1-515.e4, doi: 10.1016/j.cmi.2018.11.025) to evaluate the enhancing effect of non-antibiotics molecules on the efficacy of antibiotic against bacteria was used here to describe the average decrease in AmB MIC values (MICsurf) against various Mucorales strains in relation to surfactant concentrations (Csurf).
(§5) In equation 1, MIC0 refers to the AmB MIC measured without surfactants and MIC∞ is the lowest AmB MIC measured in the presence of surfactant. The maximal ratio in AmB MIC decrease defined as maximal efficacy (Emax) was calculated as the ratio of MIC0/MIC∞. EC50 is the concentration of surfactant producing 50% of the Emax and characterizes the potency of the surfactants. These parameters were evaluated using WinNonlin software (version 6.2, Certara, NJ, USA) as described by Chauzy et al.

Lichtheimia ramosa [2] = test: as above; settings: L. ramosa
Procedure: as §1, §2, §3, §4, §5

Mucor circinelloides = test: as above; settings: M. circinelloides
Procedure: as §1, §2, §3, §4, §5

Rhizomucor pusillus = test: as above; settings: R. pusillus
Procedure: as §1, §2, §3, §4, §5

Rhizopus arrhizus = test: as above
Procedure: as §1, §2, §3, §4, §5

Rhizopus microsporus = test: as above; settings: R. microsporus
Procedure: as §1, §2, §3, §4, §5

Lichtheimia corymbifera [3] = test: EUCAST MICs of AmB, ISA, AmB-loaded LNPs and AmB-ISA-loaded LNPs; settings: 24 h at 37° C.
Procedure: (§6) Briefly, a mass (80-120 mg) of an oil phase consisting of triglycerides (Labrafac®, or tributyrin in different mass ratios, i.e. 100% Labrafac® to 100% tributyrin) was supplemented with AmB (0,025 to 0.2 mg) and ISA (0.25 to 5 mg) and then mixed with 80 to 120 mg of PEG15HS (Solutol HS15®) and 500 to 800 μl of water to form an oil-in-water emulsion. This emulsion was then heated to 85° C., to obtain a water-in-oil emulsion, and then cooled to 40° C. Three such temperature cycles were performed and the system was then fast cooled to 4° C. The formulated nanoparticles were then characterized by size distribution and mean zeta potential measurements. Examples of formulations of LNPs loaded with AmB and AmB-ISA are detailed in Table 5:
(§7) Rhizopus arrhizus 1, Lichtheimia corymbifera and Lichtheimia ramosa strains were used. These correspond to the most frequently encountered species in human mucormycosis. These three strains were isolated from patients suffering from pulmonary mucormycosis.
(§8) MICs of AmB in solution, ISA in solution, AmB-loaded LNPs, and AmB-ISA-loaded LNPs were evaluated according to the European Committee on Antimicrobial Susceptibility Testing (EUCAST) guidelines. Briefly, MICs were determined by adding 100 μL of two-fold dilutions of AmB in solution, ISA in solution, AmB-LNPs or AmB-ISA-LNPs (0.008 to 4 mg/L) in 96-well plates. One hundred microliters of a spore suspension at a concentration of 105 spores/mL were added to the wells, and the plates were incubated for 24 h (Mucorales) or 48 h (A. fumigatus) at 37° C. […] Three experiments were performed for each strain.

Lichtheimia ramosa [4] = test: as above; settings: 24 h at 37° C.
Procedure: as §6, §7, §8

Rhizopus arrhizus 1 = test: as above; settings: 24 h at 37° C.
Procedure: as §6, §7, §8

C[C@@H]1[C@H](O)[C@@H](C)/C=C/C=C/C=C/C=C/C=C/C=C/C=C/[C@H](O[C@@H]2O[C@H](C)[C@@H](O)[C@H](N)[C@@H]2O)C[C@@H]2O[C@](O)(C[C@@H](O)C[C@@H](O)[C@H](O)CC[C@@H](O)C[C@@H](O)CC(=O)O[C@H]1C)C[C@H](O)[C@H]2C(=O)O [AmB, amphotericin B]
MIC0 (MIC of AmB in the absence of surfactant) (Lichtheimia corymbifera [1]; L. corymbifera 1): 0.36 mg/L | MIC0 (MIC of AmB in the absence of surfactant) (Lichtheimia corymbifera [1]; L. corymbifera 2): 0.06 mg/L | MIC0 (MIC of AmB in the absence of surfactant) (Lichtheimia corymbifera [1]; L. corymbifera 3): 0.25 mg/L | MIC0 (MIC of AmB in the absence of surfactant) (Lichtheimia ramosa [2]): 0.51 mg/L | MIC0 (MIC of AmB in the absence of surfactant) (Mucor circinelloides): 0.19 mg/L | MIC0 (MIC of AmB in the absence of surfactant) (Rhizomucor pusillus): 0.25 mg/L | MIC0 (MIC of AmB in the absence of surfactant) (Rhizopus arrhizus; R. arrhizus 1): 0.28 mg/L | MIC0 (MIC of AmB in the absence of surfactant) (Rhizopus arrhizus; R. arrhizus 2): 0.44 mg/L | MIC0 (MIC of AmB in the absence of surfactant) (Rhizopus arrhizus; R. arrhizus 3): 0.59 mg/L | MIC0 (MIC of AmB in the absence of surfactant) (Rhizopus arrhizus; R. arrhizus 4): 0.61 mg/L | MIC0 (MIC of AmB in the absence of surfactant) (Rhizopus arrhizus; R. arrhizus 5): 0.35 mg/L | MIC0 (MIC of AmB in the absence of surfactant) (Rhizopus microsporus): 0.68 mg/L | MIC (AmB) (Lichtheimia corymbifera [3]): 1 mg/L (≈ 1.08 µM) | MIC (AmB) (Lichtheimia ramosa [4]): 1 mg/L (≈ 1.08 µM) | MIC (AmB) (Rhizopus arrhizus 1): 1 mg/L (≈ 1.08 µM)
